# Assay results as given in US20030207843A1, “Treatment of drug-resistant human immunodeficiency virus infection” (priority 1999, published 2003).
# Read-outs that look alike come from different tables or passages of the source.
# Tests used:
# HIV-1LAI 4XAZT/W88G = experiment: p24 reduction assay in MT-2 cells, 4XAZT/W88G; type: cell-based
# Experimental: (§1) Cells. MT-2 cells (AIDS Research and Reference Reagent Program, National Institute of Allergy and Infectious Diseases, National Institutes of Health) were maintained in RPMI 1640 supplemented with 10% fetal bovine serum (FBS; JRH Biosciences, Lenexa, Kans.), 10 mM HEPES buffer, 50 IU/ml penicillin and 50 μg/ml streptomycin.
# (§2) Antiviral Susceptibility Assays. The antiviral activity of each compound was determined by inoculating MT-2 cells with HIV-1LAI at a multiplicity of infection (MOI) of 0.01 TCID50/cell, followed by incubation in the presence of three-fold serial drug dilutions (3 wells per dilution) (see Mellors, et. al., Antimicrob. Agents Chemother. 39:1087-1092). Five or seven days after infection, culture supernatants were harvested, lysed with 0.5% triton-X 100 and assayed for p24 antigen concentration using a commercial ELISA assay (DuPont, NEN Products, Wilmington, Del.). The antiviral activity of the compounds is expressed as the IC50, which is the concentration required to inhibit 50% of p24 antigen production. The fold-resistance of a test virus is calculated by dividing the IC50 of the test virus by the IC50 of the HIV-1LAI control virus.
# (§3) Generation of Mutant Recombinant HIV-1. HIV-1 containing the desired mutations were generated by oligonucleotide directed mutagenesis (Altered Sites II, Promega) as previously described (Mellors, et. al., Molecular Pharm. 41:446-451). After mutagenesis, mutant RT was subcloned into the pxxHIV-1LAI cloning vector using the silent XmaI and XbaI restriction sites located at the 5′ and 3′ ends of RT. Clones were DNA sequenced to verify the presence of the desired mutation(s) and electroporated into MT-2 cells as described above to generate infectious mutant recombinant HIV-1.
# (§4) Mutant RT was generated via oligonucleotide-directed mutagenesis and ligated into the pXXHIV-1LAI cloning vector. Cloning was facilitated by the presence of two silent restriction sites at the 5′ and 3′ ends (Xma1 and Xba1, respectively) of pXXHIV-1LAI RT. Infectious mutant recombinant HIV-1 was generated by electroporating MT-2 cells with mutated pXXHIV-1LAI clones. The presence of the desired mutations was verified by DNA sequencing.
# (§5) Invention compounds were also evaluated against a panel of HIV-1LAI derived recombinants resistant to PFA and the PFA invention compounds, as shown in Table 7.
# Recombinant viruses containing the mutations selected by invention compounds were also evaluated for their susceptibility to AZT, as shown in Table 8.
# [1] = tested on: HIV-1LAI 4XAZT (D67N, K70R, T215Y, K219Q); experiment: p24 reduction assay in MT-2 cells, 4XAZT; type: cell-based
# Experimental: as §1, §2, §3, §4
# (§6) The multi-drug resistant HIV-1 strains, 11163p1 and 11588p1, are human clinical isolates having the RT mutations indicated. HIV-1 strains treated with the lipid analogs of the present invention include wild type, e.g., xxLAI, and the like, single mutation, e.g., xxLAI MI 84V (resistant to 3TC), xxLAI L74V (resistant to ddI and ddC), xxLAI K65R (resistant to ddI, ddC, DAPD, DXG, tenofovir, and adefovir), xxLAI T215Y (resistant to AZT), and the like, double mutations, e.g., xxLAI M41 L/T215Y (resistant to AZT), xxLAI MI 84V/T215Y (resistant to 3TC and AZT), and the like, and multiple mutations, e.g., xxLAI 4XAZT ((D67N, K70R, T215Y, K219Q) resistant to AZT)), xxLAI 4XAZT/M184V ((D67N, K70R, M 184V, T215Y, K219Q) resistant to AZT and 3TC), xxLAI M5456-12 (AZT+NNRTI resistant: D67N, K70R, K103N, T215Y), xxLAI G2-3g (AZT/3TC co-resistant: M41L, D67N, M184V, H208Y, L210W, R211K, L214F, T215Y, 1293V, E297A), 11163 (multinucleoside resistant virsus: M41L, A62V, V751, F77L, K103N, F116Y, Q151M, Y181C, M184V), 11588 (multinucleoside resistant virsus: A62V, K65R, K70R, V751, F77L, F116Y, Q151M, M184V, K219Q), and the like.
# HIV-1LAI 4XAZT/E89K = experiment: p24 reduction assay in MT-2 cells, 4XAZT/E89K; type: cell-based; conditions: Table 7; for EC50: 4XAZTE89K; for Fold-resistance: 4XAZTE89K relative to wild type virus
# Experimental: as §1, §2, §3, §4, §5
# [2] = tested on: K (multinucleoside resistant recombinant virus V75I, F77L, F116Y, Q151M); experiment: p24 reduction assay in MT-2 cells, virus K; type: cell-based, HIV-1; conditions: Table 4; for Fold-resistance: virus K relative to wild type virus; for EC50: virus K, mean ± SD
# Experimental: as §1, §2
# The MNR panel consisted of a virus containing the mutations V75I, F77L, F116Y and […], a virus containing the T69S[SA insert], and a clinical isolate carrying the classic MNR genotype (62V/751/77L/116Y/151M). Each of the PFA invention compounds retained potency against these viruses with fold resistance values of <2.
# HIV-1LAI T215Y = experiment: p24 reduction assay in MT-2 cells, T215Y; type: cell-based; conditions: Table 1, MOI 0.01
# Experimental: as §1, §2, §3
# Mutant RT was generated via oligonucleotide-directed mutagenesis and ligated into the pXXHIV-1LAI cloning vector. Cloning was facilitated by the presence of two silent restriction sites at the 5′ and 3′ ends (Xma1 and Xba1, respectively) of pXXHIV-1LAI RT. […]
# MT-2 cells = experiment: In vitro selectivity index in MT-2 cells; type: cell-based; conditions: (50% cytotoxic dose/50% effective dose)×100
# Experimental: The in vitro selectivity indexes for PFA and lipid analogs of PFA were determined in MT-2 cells and are as follows:
# Note that the selectivity index ((50% cytotoxic dose/50% effective dose)×100) is much greater for the lipid analogs of PFA than for PFA itself. Since the lipid analogs have a much greater oral absorption than PFA, they may be given orally for controlling replication of drug-resistant HIV either alone or in combination with one or more antiviral agents. AZT is especially preferred in combination with the lipid analogs of PFA.
# HIV-1LAI Q161L = experiment: p24 reduction assay in MT-2 cells, Q161L; type: cell-based; conditions: Table 7; for EC50: Q161L; for Fold-resistance: Q161L relative to wild type virus
# Experimental: as §1, §2, §3, §4, §5
# [3] = tested on: HIV-1 G2-3g (molecularly cloned isolate co-resistant to AZT and 3TC); experiment: p24 reduction assay in MT-2 cells, G2-3g; type: cell-based; conditions: for EC50: G2-3g; for Fold-resistance: G2-3g relative to wild type virus
# Experimental: as §1, §2, §6
# [4] = Table 7, 4XAZTW88G, read-out: EC50
# [5] = Table 1, 4xAZT, MOI 0.01, read-out: EC50
# [6] = Table 5, 4XAZT relative to wild type virus
# [7] = Table 5, 4XAZT, mean ± SD, read-out: EC50
# [8] = Table 7, 4XAZT relative to wild type virus
# [9] = Human immunodeficiency virus 1, MT2
SMILES,EC50 (HIV-1LAI 4XAZT/E89K),Fold-resistance (HIV-1LAI 4XAZT/E89K),Fold-resistance [2],EC50 [2],EC50 (HIV-1LAI T215Y),Selectivity Index (MT-2 cells),EC50 (HIV-1LAI Q161L),Fold-resistance (HIV-1LAI Q161L),EC50 (HIV-1LAI 4XAZT/W88G; [4]),"EC50 ([3]; Table 1, MOI 0.01)",Fold-resistance ([3]; Table 5),"EC50 ([3]; Table 5, mean ± SD)","EC50 [1, 5]","Fold-resistance [1, 6]","EC50 [1, 7]","Fold-resistance [1, 8]","EC50 ([1]; Table 7, 4XAZT, read-out: EC50)",further results
"Cc1cn([C@H]2C[C@H](N=[N+]=[N-])[C@@H](CO)O2)c(=O)[nH]c1=O [AZT, 3′-Azido-3′-deoxythymidine]",–,–,–,–,–,–,–,–,–,–,–,–,–,–,–,–,–,"EC50 (HIV-1LAI 4XAZT/W88G; Human immunodeficiency virus 1, MT2, Table 8, W88G/4XAZT, read-out: AZT EC50): 0.06 ± 0.018 µM; Fold resistance (HIV-1LAI 4XAZT/W88G; Table 8, W88G/4XAZT relative to wild type virus): 1.5; EC50 ([1]; Human immunodeficiency virus 1, MT2, Table 8, 4XAZT, read-out: AZT EC50): 0.29 ± 0.114 µM; Fold resistance ([1]; Table 8, 4XAZT relative to wild type virus): 7.3"
"CCCCCCCCCCCCCCCCCCOC[C@@H](O)COP(=O)(O)C(=O)O [B-PFA, 1-O-octadecyl-sn-glycero-3-PFA]",17.4 µM,14.9 (6.6),(1.6),4.2 µM,0.84 µM,781,> 30 µM,(>17.2),16.4 µM,1.47 µM,(0.9),1.67 ± 0.95 µM,1.25 µM,(0.8),1.47 ± 0.63 µM,0.63 (0.8),1.47 µM,–
"CCCCCCCCCCCCCCCCCCOC[C@H](COP(=O)(O)C(=O)O)OCC [EB-PFA, 1-O-octadecyl-2-O-ethyl-sn-glycero-3-PFA]",4.39 µM,4.59 (5.6),–,0.9 ± 0.7 µM,0.14 µM,1905,6.73 µM,0.04 (7.5),3.31 µM,0.32 µM,(0.5),0.3 ± 0.04 µM,0.33 µM,(0.5),0.34 ± 0.24 µM,0.24 (0.5),0.34 µM,–
"CCCCCCCCCCCCCCCCCCOC[C@H](COP(=O)(O)C(=O)O)OC [MB-PFA, 1-O-octadecyl-2-O-methyl-sn-glycero-3-PFA]",9.28 µM,9.20 (11.1),(0.87),2 ± 0.6 µM,0.27 µM,953,8.78 µM,1.58 (11.4),2.46 µM,0.26 µM,(0.8),0.4 ± 0.26 µM,0.46 µM,(1.2),0.58 ± 0.22 µM,0.22 (1.2),0.58 µM,–
"O=C(O)P(=O)(O)O [PFA, phosphonoformate, reference compound]",–,–,(0.7),–,–,137,–,14.14 (8.8),–,–,(0.5),–,–,(0.7),–,8.07 (0.7),–,"EC50 (HIV-1LAI 4XAZT/E89K; [9]): 134 µM; EC50 [2, 9]: 21.4 ± 15.6 µM; EC50 (HIV-1LAI Q161L; [9]): 115 µM; EC50 (HIV-1LAI 4XAZT/W88G; Human immunodeficiency virus 1, MT2, Table 7, 4XAZTW88G, read-out: EC50): 86.2 µM; EC50 ([3]; Human immunodeficiency virus 1, MT2, Table 1, MOI 0.01): 7.6 µM; EC50 ([3]; Human immunodeficiency virus 1, MT2, Table 5, mean ± SD): 8.85 ± 3.49 µM; EC50 ([1]; Human immunodeficiency virus 1, MT2, Table 1, 4xAZT, MOI 0.01, read-out: EC50): 8.82 µM; EC50 ([1]; Human immunodeficiency virus 1, MT2, Table 5, 4XAZT, mean ± SD, read-out: EC50): 12.7 ± 8.07 µM; EC50 ([1]; Human immunodeficiency virus 1, MT2, Table 7, 4XAZT, read-out: EC50): 12.7 µM"
